Results as given in the NIST ThermoML archive (doi:10.1016/j.jct.2019.03.039).
Numbers after ± are expanded uncertainties.

Assay: mn = molality of the nth substance listed, in mol/kg
Conditions: 101.3 kPa, Liquid; for viscosity: Capillary tube (Ostwald / Ubbelohde) method; for speed of sound: Frequency=4 MHz, Linear variable-path acoustic interferometer; for mass density: Vibrating tube method

O [water] + N=C(N)NCCC[C@H](N)C(=O)O
m2 = 0
Conditions	mass density [kg/m3]	speed of sound [m/s]	viscosity [mPa·s]
293.15 K	–	–	1.002 ± 0.032
298.15 K	–	–	0.8906 ± 0.032
303.15 K	–	–	0.7975 ± 0.032
308.15 K	994.059 ± 0.37	1519.3 ± 1.8	0.7193 ± 0.032
313.15 K	–	1528.7 ± 1.8	0.6531 ± 0.032

N[C@@H](CO)C(=O)O [L-serine] + O
Conditions	mass density [kg/m3]	speed of sound [m/s]	viscosity [mPa·s]
293.15 K, m1 = 0.05002	1000.49 ± 0.37	1485.7 ± 1.7	1.011 ± 0.032
293.15 K, m1 = 0.1001	1002.74 ± 0.37	1488.9 ± 1.7	1.022 ± 0.032
293.15 K, m1 = 0.15	1004.96 ± 0.37	1492.2 ± 1.7	1.034 ± 0.032
293.15 K, m1 = 0.2003	1007.18 ± 0.37	1495.6 ± 1.7	1.046 ± 0.033
293.15 K, m1 = 0.2502	1009.36 ± 0.37	1499.1 ± 1.7	1.058 ± 0.033
293.15 K, m1 = 0.2999	1011.52 ± 0.37	1502.7 ± 1.8	1.069 ± 0.033
298.15 K, m1 = 0.05002	999.314 ± 0.37	1500.4 ± 1.7	0.8972 ± 0.032
298.15 K, m1 = 0.1001	1001.55 ± 0.37	1503.5 ± 1.8	0.907 ± 0.032
298.15 K, m1 = 0.15	1003.74 ± 0.37	1506.7 ± 1.8	0.9165 ± 0.032
298.15 K, m1 = 0.2003	1005.94 ± 0.37	1510 ± 1.8	0.9277 ± 0.032
298.15 K, m1 = 0.2502	1008.1 ± 0.37	1513.4 ± 1.8	0.9379 ± 0.032
298.15 K, m1 = 0.2999	1010.23 ± 0.37	1516.9 ± 1.8	0.9477 ± 0.032
303.15 K, m1 = 0.05002	997.896 ± 0.37	1512.4 ± 1.8	0.8025 ± 0.032
303.15 K, m1 = 0.1001	1000.1 ± 0.37	1515.4 ± 1.8	0.8115 ± 0.032
303.15 K, m1 = 0.15	1002.27 ± 0.37	1518.5 ± 1.8	0.8204 ± 0.032
303.15 K, m1 = 0.2003	1004.44 ± 0.37	1521.7 ± 1.8	0.8295 ± 0.032
303.15 K, m1 = 0.2502	1006.56 ± 0.37	1525 ± 1.8	0.8377 ± 0.032
303.15 K, m1 = 0.2999	1008.66 ± 0.37	1528.4 ± 1.8	0.8466 ± 0.032
308.15 K, m1 = 0.05002	996.254 ± 0.37	1522.1 ± 1.8	0.723 ± 0.032
308.15 K, m1 = 0.1001	998.433 ± 0.37	1525 ± 1.8	0.7313 ± 0.032
308.15 K, m1 = 0.15	1000.58 ± 0.37	1528 ± 1.8	0.7386 ± 0.032
308.15 K, m1 = 0.2003	1002.72 ± 0.37	1531.1 ± 1.8	0.7463 ± 0.032
308.15 K, m1 = 0.2502	1004.83 ± 0.37	1534.3 ± 1.8	0.7535 ± 0.032
308.15 K, m1 = 0.2999	1006.92 ± 0.37	1537.6 ± 1.8	0.7611 ± 0.032
313.15 K, m1 = 0.05002	994.421 ± 0.37	1531.4 ± 1.8	0.6558 ± 0.032
313.15 K, m1 = 0.1001	996.578 ± 0.37	1534.2 ± 1.8	0.6627 ± 0.032
313.15 K, m1 = 0.15	998.702 ± 0.37	1537.1 ± 1.8	0.6688 ± 0.032
313.15 K, m1 = 0.2003	1000.82 ± 0.37	1540.2 ± 1.8	0.6756 ± 0.032
313.15 K, m1 = 0.2502	1002.91 ± 0.37	1543.3 ± 1.8	0.682 ± 0.032
313.15 K, m1 = 0.2999	1004.97 ± 0.37	1546.6 ± 1.8	0.6881 ± 0.032

Cc1ncc(C[n+]2csc(CCO)c2C)c(N)n1.Cl.[Cl-] [thiamine hydrochloride] + O
Conditions	mass density [kg/m3]	speed of sound [m/s]	viscosity [mPa·s]
293.15 K, m1 = 0.0497	1003.19 ± 0.36	1490.4 ± 1.7	1.048 ± 0.033
293.15 K, m1 = 0.0502	1003.19 ± 0.36	–	1.048 ± 0.033
293.15 K, m1 = 0.0503	–	1490.4 ± 1.7	–
293.15 K, m1 = 0.1003	1008.06 ± 0.36	1498.5 ± 1.7	1.071 ± 0.033
293.15 K, m1 = 0.1008	1008.06 ± 0.36	1498.5 ± 1.7	1.071 ± 0.033
293.15 K, m1 = 0.1498	1013.01 ± 0.36	1507.2 ± 1.8	1.101 ± 0.033
293.15 K, m1 = 0.1505	1013.01 ± 0.36	1507.2 ± 1.8	1.101 ± 0.033
298.15 K, m1 = 0.0497	1001.99 ± 0.36	1504.1 ± 1.8	0.9193 ± 0.032
298.15 K, m1 = 0.0502	1001.99 ± 0.36	–	0.9193 ± 0.032
298.15 K, m1 = 0.0503	–	1504.1 ± 1.8	–
298.15 K, m1 = 0.1003	1006.87 ± 0.36	1512.6 ± 1.8	0.954 ± 0.032
298.15 K, m1 = 0.1008	1006.87 ± 0.36	1512.6 ± 1.8	0.954 ± 0.032
298.15 K, m1 = 0.1498	1011.77 ± 0.36	1520.8 ± 1.8	0.9913 ± 0.032
298.15 K, m1 = 0.1505	1011.77 ± 0.36	1520.8 ± 1.8	0.9913 ± 0.032
303.15 K, m1 = 0.0497	1000.56 ± 0.36	1516.7 ± 1.8	0.8251 ± 0.032
303.15 K, m1 = 0.0502	1000.56 ± 0.36	–	0.8251 ± 0.032
303.15 K, m1 = 0.0503	–	1516.7 ± 1.8	–
303.15 K, m1 = 0.1003	1005.44 ± 0.36	1524.1 ± 1.8	0.8569 ± 0.032
303.15 K, m1 = 0.1008	1005.44 ± 0.36	1524.1 ± 1.8	0.8569 ± 0.032
303.15 K, m1 = 0.1498	1010.29 ± 0.36	1532.7 ± 1.8	0.8892 ± 0.032
303.15 K, m1 = 0.1505	1010.29 ± 0.36	1532.7 ± 1.8	0.8892 ± 0.032
308.15 K, m1 = 0.0497	998.93 ± 0.36	1526.9 ± 1.8	0.7565 ± 0.032
308.15 K, m1 = 0.0502	998.93 ± 0.36	–	0.7565 ± 0.032
308.15 K, m1 = 0.0503	–	1526.9 ± 1.8	–
308.15 K, m1 = 0.1003	1003.79 ± 0.36	1533.7 ± 1.8	0.7753 ± 0.032
308.15 K, m1 = 0.1008	1003.79 ± 0.36	1533.7 ± 1.8	0.7753 ± 0.032
308.15 K, m1 = 0.1498	1008.62 ± 0.36	1542.5 ± 1.8	0.8015 ± 0.032
308.15 K, m1 = 0.1505	1008.62 ± 0.36	1542.5 ± 1.8	0.8015 ± 0.032
313.15 K, m1 = 0.0497	997.193 ± 0.36	1535.5 ± 1.8	0.6772 ± 0.032
313.15 K, m1 = 0.0502	997.193 ± 0.36	–	0.6772 ± 0.032
313.15 K, m1 = 0.0503	–	1535.5 ± 1.8	–
313.15 K, m1 = 0.1003	1002 ± 0.36	1542.8 ± 1.8	0.7057 ± 0.032
313.15 K, m1 = 0.1008	1002 ± 0.36	1542.8 ± 1.8	0.7057 ± 0.032
313.15 K, m1 = 0.1498	1006.76 ± 0.36	1551.1 ± 1.8	0.7388 ± 0.032
313.15 K, m1 = 0.1505	1006.76 ± 0.36	1551.1 ± 1.8	0.7388 ± 0.032

N=C(N)NCCC[C@H](N)C(=O)O [L-arginine] + O
Conditions	mass density [kg/m3]	speed of sound [m/s]	viscosity [mPa·s]
293.15 K, m1 = 0.05014	1000.72 ± 0.37	1487.6 ± 1.7	1.032 ± 0.032
293.15 K, m1 = 0.1001	1003.17 ± 0.37	1492.7 ± 1.7	1.054 ± 0.033
293.15 K, m1 = 0.15	1005.58 ± 0.37	1497.9 ± 1.8	1.08 ± 0.033
293.15 K, m1 = 0.2	1007.92 ± 0.37	1503.2 ± 1.8	1.107 ± 0.033
293.15 K, m1 = 0.25	1010.21 ± 0.37	1508.6 ± 1.8	1.13 ± 0.033
293.15 K, m1 = 0.3001	1012.47 ± 0.37	1514.1 ± 1.8	1.155 ± 0.033
298.15 K, m1 = 0.05014	999.556 ± 0.37	1502.4 ± 1.8	0.9151 ± 0.032
298.15 K, m1 = 0.1001	1001.99 ± 0.37	1507.5 ± 1.8	0.9358 ± 0.032
298.15 K, m1 = 0.15	1004.36 ± 0.37	1512.7 ± 1.8	0.9586 ± 0.032
298.15 K, m1 = 0.2	1006.68 ± 0.37	1518 ± 1.8	0.9766 ± 0.032
298.15 K, m1 = 0.25	1008.94 ± 0.37	1523.4 ± 1.8	1 ± 0.032
298.15 K, m1 = 0.3001	1011.17 ± 0.37	1528.9 ± 1.8	1.021 ± 0.033
303.15 K, m1 = 0.05014	998.142 ± 0.37	1514.5 ± 1.8	0.8179 ± 0.032
303.15 K, m1 = 0.1001	1000.55 ± 0.37	1519.6 ± 1.8	0.8355 ± 0.032
303.15 K, m1 = 0.15	1002.9 ± 0.37	1524.8 ± 1.8	0.8555 ± 0.032
303.15 K, m1 = 0.2	1005.19 ± 0.37	1530.1 ± 1.8	0.8718 ± 0.032
303.15 K, m1 = 0.25	1007.45 ± 0.37	1535.5 ± 1.8	0.8909 ± 0.032
303.15 K, m1 = 0.3001	1009.67 ± 0.37	1541 ± 1.8	0.9084 ± 0.032
308.15 K, m1 = 0.05014	996.503 ± 0.37	1524.3 ± 1.8	0.7362 ± 0.032
308.15 K, m1 = 0.1001	998.883 ± 0.37	1529.4 ± 1.8	0.7512 ± 0.032
308.15 K, m1 = 0.15	1001.21 ± 0.37	1534.6 ± 1.8	0.7694 ± 0.032
308.15 K, m1 = 0.2	1003.48 ± 0.37	1539.9 ± 1.8	0.7828 ± 0.032
308.15 K, m1 = 0.25	1005.7 ± 0.37	1545.3 ± 1.8	0.7987 ± 0.032
308.15 K, m1 = 0.3001	1007.89 ± 0.37	1550.8 ± 1.8	0.8144 ± 0.032
313.15 K, m1 = 0.05014	994.671 ± 0.37	1533.7 ± 1.8	0.6673 ± 0.032
313.15 K, m1 = 0.1001	997.036 ± 0.37	1538.8 ± 1.8	0.6808 ± 0.032
313.15 K, m1 = 0.15	999.344 ± 0.37	1544 ± 1.8	0.6951 ± 0.032
313.15 K, m1 = 0.2	1001.6 ± 0.37	1549.3 ± 1.8	0.7067 ± 0.032
313.15 K, m1 = 0.25	1003.8 ± 0.37	1554.7 ± 1.8	0.7224 ± 0.032
313.15 K, m1 = 0.3001	1005.97 ± 0.37	1560.3 ± 1.8	0.7345 ± 0.032

O [water] + N[C@@H](CO)C(=O)O
m2 = 0
Conditions	mass density [kg/m3]	speed of sound [m/s]	viscosity [mPa·s]
293.15 K	–	–	1.002 ± 0.032
298.15 K	–	–	0.8906 ± 0.032
303.15 K	–	–	0.7975 ± 0.032
308.15 K	994.059 ± 0.37	1519.3 ± 1.8	0.7193 ± 0.032
313.15 K	–	1528.7 ± 1.8	0.6531 ± 0.032

O [water] + Cc1ncc(C[n+]2csc(CCO)c2C)c(N)n1.Cl.[Cl-]
m2 = 0
Conditions	mass density [kg/m3]	speed of sound [m/s]	viscosity [mPa·s]
293.15 K	–	–	1.002 ± 0.032
298.15 K	–	–	0.8906 ± 0.032
303.15 K	–	–	0.7975 ± 0.032
308.15 K	994.059 ± 0.36	1519.3 ± 1.8	0.7193 ± 0.032
313.15 K	–	1528.7 ± 1.8	0.6531 ± 0.032
